# Measured values as given in patent US6833262B1 (priority 1999, dated 2004).
# Like-named read-outs stand apart in the source and are kept apart here. Peptide text beside a SMILES is read from it.
# Legend:
# periodontain [1] = format: biochemical, Porphyromonas gingivalis
# periodontain [2] = assay: Activation of periodontain by reducing agents and additives; format: biochemical, Porphyromonas gingivalis; conditions: for Periodontain activity achieved with reducing agent: reducing agent at 0.1 mM concentration
# [3] = test system: human α1-proteinase inhibitor
# Kgp = Kgp (Porphyromonas gingivalis, UniProt B2RLK2); conditions: cited from earlier work
# Rgp's = conditions: cited from earlier work
compound,measurement,setting,value
"NC(N)=NCCC[C@H](NC(=O)[C@@H]1CCCN1C(=O)[C@H](N)Cc1ccccc1)C(=O)CCl [Phe—Pro—Arg chloromethyl ketone, Phe-Pro-Arg chloromethyl ketone]",Inhibition of periodontain (in words),periodontain [1],readily inhibited
same,Percent Inhibition,periodontain [1]; 10 µM,96%
Tosyl-L-lysine chloromethyl ketone,Inhibition of periodontain (in words),periodontain [1],readily inhibited
same,Percent Inhibition,periodontain [1],91%
NC(=O)CI [Idoacetamide],Inhibition of periodontain (in words),periodontain [1],readily inhibited
same,Percent Inhibition,periodontain [1],100%
NCC(=O)NCC(=O)O [glycyl-glycine] (H-Gly-Gly-OH),Stimulation of periodontain activity,periodontain [2]; data not shown,did not stimulate activity
periodontain (mature native heterodimer purified from P. gingivalis HG66 culture fluid),hydrolysis of a synthetic pNA substrate,Phe-Leu-Glu-pNA,no hydrolysis was detected
same,"Specific Activity (α1-PI inactivation assay, final TSK gel filtration step)",[3],368 units/mg
"N[C@@H](CS)C(=O)O [free cysteine, cysteine]",Periodontain activity achieved with reducing agent,periodontain [2],full activity
OCCS [β-mercaptoethanol],Periodontain activity achieved with reducing agent,periodontain [2],full activity
CC(=O)N[C@@H](CC(C)C)C(=O)N[C@@H](CC(C)C)C(=O)N[C@H](C=O)CCCNC(=N)N [Leupeptin],Inhibition of periodontain (in words),periodontain [1],readily inhibited
same,Percent Inhibition,periodontain [1]; 50 µM,88%
"CC(C)C[C@H](NC(=O)[C@H]1O[C@@H]1C(=O)O)C(=O)NCCCCN=C(N)N (relative stereo) [E-64, L-trans-epoxysuccinyl-leucylamide-(4-guanidino)-butane]",Inhibition of periodontain (in words),periodontain [1],readily inhibited
same,Percent Inhibition,periodontain [1]; 100 µM,100%
same,Inhibition of Kgp,Kgp,not inhibited
same,Inhibition of Rgp's,Rgp's,only weakly inhibited
"O[C@H](CS)[C@H](O)CS (racemic) [DTT, dithiothreitol]",Periodontain activity achieved with reducing agent,periodontain [2],full activity
ethylenediaminetetra-acetate [EDTA],Percent Inhibition,periodontain [1],0%
"NCCCC[C@H](NC(=O)[C@H](Cc1ccccc1)NC(=O)OCc1ccccc1)C(=O)COC(=O)c1ccccc1 [Z-Phe—Lys benzoyloxy methyl ketone, Z-Phe-Lys benzoyloxy methyl ketone]",Inhibition of periodontain (in words),periodontain [1],readily inhibited
same,Percent Inhibition,periodontain [1]; 10 µM,99%
"O=c1oc(Cl)c(Cl)c2ccccc12 [Dichloroisocoumarin, 3,4 dichloroisocoumarin]",Inhibition of periodontain (in words),periodontain [1],readily inhibited
same,Percent Inhibition,periodontain [1],2%
calcium ions,Stabilizing effect on periodontain,periodontain [2]; data not shown,did not have a stabilizing effect
